The target in test [1] is T1, human GIP receptor (hGIPR) (Homo sapiens, UniProt P48546).
T1 construct: expressed in transfected cells; crude membranes
T1 sequence (P48546 22-466): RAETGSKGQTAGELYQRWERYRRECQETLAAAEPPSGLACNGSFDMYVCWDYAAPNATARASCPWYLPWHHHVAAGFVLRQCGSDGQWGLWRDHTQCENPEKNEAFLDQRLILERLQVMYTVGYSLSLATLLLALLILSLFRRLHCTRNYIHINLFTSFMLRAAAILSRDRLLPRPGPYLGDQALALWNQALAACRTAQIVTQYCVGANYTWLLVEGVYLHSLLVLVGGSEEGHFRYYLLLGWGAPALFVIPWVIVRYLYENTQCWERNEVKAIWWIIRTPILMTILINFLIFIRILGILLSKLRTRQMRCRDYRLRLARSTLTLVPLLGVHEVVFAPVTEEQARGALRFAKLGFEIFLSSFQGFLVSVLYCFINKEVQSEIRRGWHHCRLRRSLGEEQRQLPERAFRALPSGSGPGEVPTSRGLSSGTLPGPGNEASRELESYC
Nature of the test: [125I]-GIP binding, SPA with membranes of CHO cells expressing hGIPR.

For a further test, the target named is T2, hGIPR (Homo sapiens, UniProt P48546).
T2 construct: expressed in transfected cells
T2 sequence (P48546 22-466): T1 sequence (P48546 22-466)
Nature of the test: Functional cAMP formation (HTRF) in HEK-293 clonal cells expressing hGIPR, 0.1% bovine casein, without or with 1.0% human serum albumin. Conditions: for Emax: percent of maximal response to GIP(1-42)NH2; for EC50: cAMP. In kind it is cell-based. The procedure, abridged:
(§1)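 Cells were stimulated with peptide for 30 min at 37° C, then lysed in buffer carrying cAMP-d2 and anti-cAMP Eu3+-cryptate for a competitive HTRF read after at least 60 min at room temperature. The 665/620 nm ratio was converted to nM cAMP against a standard curve.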
A general note: cAMP levels reflect the balance of adenylyl cyclase and phosphodiesterase activity.

The next test concerns the target T3, hGCGR (Homo sapiens, UniProt P47871).
T3 construct: expressed in transfected cells
The experiment in a line: Functional cAMP formation (HTRF) in HEK-293 clonal cells expressing hGCGR, 0.1% bovine casein, without or with 1.0% human serum albumin. Format: cell-based. Conditions: cAMP, 37° C. The method in brief: as §1

In another test the target is hGLP-1R (Homo sapiens, UniProt P43220). Nature of the test: Functional cAMP formation (HTRF) in HEK-293 clonal cells expressing hGLP-1R, 0.1% bovine casein, without or with 1.0% human serum albumin. In kind it is cell-based. Also on record: expressed in transfected cells. Conditions: for Emax: percent of maximal response to GLP-1(7-36)NH2; for EC50: cAMP. The procedure, abridged:
as §1

Setting [2] is: HEK293, read-out: hGIPR Emax, % ± SEM, cAMP, 37° C., 0.1% bovine casein and 1.0% human serum albumin.
[3] abbreviates: hGIPR EC50, nM (SEM, n), 37° C., 0.1% bovine casein (no human serum albumin), geometric mean.
The mark [4] stands for this setting: hGCGR EC50, nM (SEM, n), 0.1% bovine casein (no human serum albumin), geometric mean.
Where [5] appears, read: hGCGR EC50, nM (SEM, n), 0.1% bovine casein and 1.0% human serum albumin, geometric mean (SEM, n).
Setting [6] is: hGLP-1R EC50, nM (SEM, n), 37° C., 0.1% bovine casein (no human serum albumin), geometric mean.
The mark [7] stands for this setting: human GIPR, geometric mean (SEM, n), read-out: Binding Affinity Ki, nM (SEM, n) hGIPR.
[8] abbreviates: HEK293, cAMP, 37° C., 0.1% bovine casein, arithmetic mean, read-out: hGIPR Emax, % ± SEM.
Setting [9] is: 37° C., 0.1% bovine casein (no human serum albumin), geometric mean, read-out: hGIPR EC50, nM (SEM, n).
Setting [10] is: 0.1% bovine casein (no human serum albumin), geometric mean, read-out: hGCGR EC50, nM (SEM, n).
Where [11] appears, read: 0.1% bovine casein and 1.0% human serum albumin, geometric mean (SEM, n), read-out: hGCGR EC50, nM (SEM, n).
Where [12] appears, read: 37° C., 0.1% bovine casein (no human serum albumin), geometric mean, read-out: hGLP-1R EC50, nM (SEM, n).

4 compounds from patent US20230265151A1, “GIP/GLP1 CO-AGONIST COMPOUNDS” (priority 2020, published 2023) can be followed below.

Broadly, the Ki is the equilibrium dissociation constant of an inhibitor or competing ligand from its target. As usually defined, the Emax is the size of the effect at its maximum, as opposed to the concentration needed. The term EC50 denotes the concentration giving half of the maximal effect.

Like-named read-outs stand apart in the source and are kept apart here.

T3 sequence (P47871 26-477): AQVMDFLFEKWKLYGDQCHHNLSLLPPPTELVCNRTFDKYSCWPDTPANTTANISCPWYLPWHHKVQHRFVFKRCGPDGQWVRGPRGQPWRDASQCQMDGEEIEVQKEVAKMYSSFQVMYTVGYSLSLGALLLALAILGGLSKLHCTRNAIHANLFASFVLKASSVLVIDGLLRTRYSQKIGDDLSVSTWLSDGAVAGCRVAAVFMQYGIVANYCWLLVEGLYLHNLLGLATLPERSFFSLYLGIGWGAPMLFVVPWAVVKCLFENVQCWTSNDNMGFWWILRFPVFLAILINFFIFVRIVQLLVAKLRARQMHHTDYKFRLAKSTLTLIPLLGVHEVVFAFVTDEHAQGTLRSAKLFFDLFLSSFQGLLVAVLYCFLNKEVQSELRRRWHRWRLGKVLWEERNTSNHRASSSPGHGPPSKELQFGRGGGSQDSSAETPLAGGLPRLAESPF
Chain of hGLP-1R (P43220 24-463): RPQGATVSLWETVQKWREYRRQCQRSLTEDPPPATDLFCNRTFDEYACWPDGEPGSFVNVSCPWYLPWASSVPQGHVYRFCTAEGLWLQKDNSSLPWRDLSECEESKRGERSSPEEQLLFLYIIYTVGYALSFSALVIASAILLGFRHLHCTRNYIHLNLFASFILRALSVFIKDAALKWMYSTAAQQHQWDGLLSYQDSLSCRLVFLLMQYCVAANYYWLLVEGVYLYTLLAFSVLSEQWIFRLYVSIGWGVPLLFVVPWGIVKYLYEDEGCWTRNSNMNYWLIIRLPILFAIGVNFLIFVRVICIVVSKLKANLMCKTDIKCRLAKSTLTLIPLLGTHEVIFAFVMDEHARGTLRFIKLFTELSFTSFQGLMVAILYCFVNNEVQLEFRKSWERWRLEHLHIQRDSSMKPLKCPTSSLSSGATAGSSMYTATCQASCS

As to `CC[C@H](C)[C@H](NC(=O)[C@H](CC(C)C)NC(=O)[C@](C)(Cc1ccc(O)cc1)NC(=O)[C@H](CCCCNC(=O)CCOCCOCCOCCOCCOCCOCCNC(=O)CC[C@H](NC(=O)CCCCCCCCCOc1ccc(C(=O)O)cc1)C(=O)O)NC(=O)[C@@H](NC(=O)[C@H](Cc1ccccc1)NC(=O)[C@H](CCCN)NC(=O)C(C)(C)NC(=O)[C@H](CCC(N)=O)NC(=O)[C@H](C)NC(=O)[C@H](CCC(N)=O)NC(=O)[C@H](CCCN)NC(=O)[C@H](CC(=O)O)NC(=O)[C@H](CC(C)C)NC(=O)[C@](C)(CC(C)C)NC(=O)[C@@H](NC(=O)C(C)(C)NC(=O)[C@H](Cc1ccncc1)NC(=O)[C@H](CC(=O)O)NC(=O)[C@H](CO)NC(=O)[C@@H](NC(=O)[C@](C)(Cc1ccccc1F)NC(=O)[C@@H](NC(=O)CNC(=O)[C@H](CCC(=O)O)NC(=O)C(C)(C)NC(=O)[C@@H](N)Cc1ccc(O)cc1)[C@@H](C)O)[C@@H](C)O)[C@@H](C)CC)[C@@H](C)CC)C(=O)N[C@@H](CCCCNC(=O)CCOCCOCCOCCOCCOCCOCCNC(=O)CC[C@H](NC(=O)CCCCCCCCCOc1ccc(C(=O)O)cc1)C(=O)O)C(=O)NCC(=O)NCC(=O)N1CCC[C@H]1C(=O)N[C@@H](CO)C(=O)N[C@@H](CO)C(=O)NCC(=O)N[C@@H](C)C(=O)N1CCC[C@H]1C(=O)N1CCC[C@H]1C(=O)N1CCC[C@H]1C(=O)N[C@@H](CO)C(N)=O` [Example 468], the affinity in test [1] corresponds to a Ki of 0.0291 nM. In addition, the Emax at hGIPR (setting [2]) is 85.9%; on hGIPR (HEK293, read-out: hGIPR Emax, % ± SEM, cAMP, 37° C., 0.1% bovine casein, arithmetic mean) it was 97.1%; on hGLP-1R (HEK293, read-out: hGLP-1R Emax, % ± SEM, cAMP, 37° C., 0.1% bovine casein, arithmetic mean), 109%. The half-maximal effective concentration (EC50) on hGIPR (setting [3]) is 0.00991 nM; on hGCGR (setting [4]), over 10100 nM; on hGCGR (setting [5]) it was over 10100 nM; at hGLP-1R (setting [6]) it was 0.168 nM.

`CC[C@H](C)[C@H](NC(=O)[C@H](CC(C)C)NC(=O)[C@](C)(Cc1ccc(O)cc1)NC(=O)[C@H](CCCCNC(=O)COCCOCCNC(=O)COCCOCCNC(=O)CC[C@H](NC(=O)CCCCCCCCCOc1ccc(C(=O)O)cc1)C(=O)O)NC(=O)[C@@H](NC(=O)[C@H](Cc1ccccc1)NC(=O)[C@H](CCCN)NC(=O)C(C)(C)NC(=O)[C@H](CCC(N)=O)NC(=O)[C@H](C)NC(=O)[C@H](CCC(N)=O)NC(=O)[C@H](CCCN)NC(=O)[C@H](CC(=O)O)NC(=O)[C@H](CC(C)C)NC(=O)[C@](C)(CC(C)C)NC(=O)[C@@H](NC(=O)C(C)(C)NC(=O)[C@H](Cc1ccncc1)NC(=O)[C@H](CC(=O)O)NC(=O)[C@H](CO)NC(=O)[C@@H](NC(=O)[C@](C)(Cc1ccccc1F)NC(=O)[C@@H](NC(=O)CNC(=O)[C@H](CCC(=O)O)NC(=O)C(C)(C)NC(=O)[C@@H](N)Cc1ccc(O)cc1)[C@@H](C)O)[C@@H](C)O)[C@@H](C)CC)[C@@H](C)CC)C(=O)N[C@@H](CCCCNC(=O)COCCOCCNC(=O)COCCOCCNC(=O)CC[C@H](NC(=O)CCCCCCCCCOc1ccc(C(=O)O)cc1)C(=O)O)C(=O)NCC(=O)NCC(=O)N1CCC[C@H]1C(=O)N[C@@H](CO)C(=O)N[C@@H](CO)C(=O)NCC(=O)N[C@@H](C)C(=O)N1CCC[C@H]1C(=O)N1CCC[C@H]1C(=O)N1CCC[C@H]1C(=O)N[C@@H](CO)C(N)=O` [Example 440] gave a Ki in test [1] of 0.0312 nM. Moreover, on hGIPR (setting [2]), the maximum response (Emax) stood at 90.3%. Besides, the EC50 at hGIPR (setting [3]) was 0.0104 nM; at hGCGR (setting [4]), over 10100 nM; at hGCGR (setting [5]) it was over 10100 nM; on hGLP-1R (setting [6]) it was 0.18 nM; on hGLP-1R (hGLP-1R EC50, nM (SEM, n), 37° C., 0.1% bovine casein and 1.0% human serum albumin, geometric mean (SEM, n)), 2.74 nM.

In the case of `CC[C@H](C)[C@H](NC(=O)[C@H](CC(C)C)NC(=O)[C@](C)(Cc1ccc(O)cc1)NC(=O)[C@H](CCCCNC(=O)COCCOCCNC(=O)COCCOCCNC(=O)CC[C@H](NC(=O)CCCCCCCCCCCCC(=O)O)C(=O)O)NC(=O)[C@@H](NC(=O)[C@H](Cc1ccccc1)NC(=O)[C@H](CCCN)NC(=O)C(C)(C)NC(=O)[C@H](CCC(N)=O)NC(=O)[C@H](C)NC(=O)[C@H](CCC(N)=O)NC(=O)[C@H](CCCN)NC(=O)[C@H](CC(=O)O)NC(=O)[C@H](CC(C)C)NC(=O)[C@](C)(CC(C)C)NC(=O)[C@@H](NC(=O)C(C)(C)NC(=O)[C@@H](NC(=O)[C@H](CC(=O)O)NC(=O)[C@H](CO)NC(=O)[C@@H](NC(=O)[C@](C)(Cc1ccccc1F)NC(=O)[C@@H](NC(=O)CNC(=O)[C@H](CCC(=O)O)NC(=O)C(C)(C)NC(=O)[C@@H](N)Cc1ccc(O)cc1)[C@@H](C)O)[C@@H](C)O)C(C)C)[C@@H](C)CC)[C@@H](C)CC)C(=O)N[C@@H](CCCCNC(=O)COCCOCCNC(=O)COCCOCCNC(=O)CC[C@H](NC(=O)CCCCCCCCCCCCC(=O)O)C(=O)O)C(=O)NCC(=O)NCC(=O)N1CCC[C@H]1C(=O)N[C@@H](CO)C(=O)N[C@@H](CO)C(=O)NCC(=O)N[C@@H](C)C(=O)N1CCC[C@H]1C(=O)N1CCC[C@H]1C(=O)N1CCC[C@H]1C(=O)N[C@@H](CO)C(N)=O` [Example 448], the Ki in test [1] (setting [7]) was 0.0314 nM. Besides, the Emax on hGIPR (setting [8]) was found to be 105%. For the same compound, the EC50 on hGIPR (setting [9]) was 0.0164 nM; at hGIPR (37° C., 0.1% bovine casein and 1.0% human serum albumin, geometric mean (SEM, n), read-out: hGIPR EC50, nM (SEM, n)) it was 1.41 nM; on hGCGR (setting [10]) it was over 9950 nM; on hGCGR (setting [11]) it was over 9950 nM; at hGLP-1R (setting [12]) it was 0.157 nM.

With `CCCCCCCCCCCC(=O)N[C@@H](CCC(=O)NCCOCCOCC(=O)NCCOCCOCC(=O)NCCOCCOCC(=O)NCCCC[C@H](NC(=O)[C@H](CCCN)NC(=O)[C@H](CC(=O)O)NC(=O)[C@H](CC(C)C)NC(=O)[C@](C)(CC(C)C)NC(=O)[C@@H](NC(=O)C(C)(C)NC(=O)[C@H](CCCCNC(=O)COCCOCCNC(=O)COCCOCCNC(=O)COCCOCCNC(=O)CC[C@H](NC(=O)CCCCCCCCCCC)C(=O)O)NC(=O)[C@H](CC(=O)O)NC(=O)[C@H](CO)NC(=O)[C@@H](NC(=O)[C@](C)(Cc1ccccc1F)NC(=O)[C@@H](NC(=O)CNC(=O)[C@H](CCC(=O)O)NC(=O)C(C)(C)NC(=O)[C@@H](N)Cc1ccc(O)cc1)[C@@H](C)O)[C@@H](C)O)[C@@H](C)CC)C(=O)N[C@@H](C)C(=O)N[C@@H](CCC(N)=O)C(=O)NC(C)(C)C(=O)N[C@@H](CCC(=O)O)C(=O)N[C@@H](Cc1ccccc1)C(=O)N[C@H](C(=O)N[C@H](CCC(=O)O)C(=O)N[C@@](C)(Cc1ccc(O)cc1)C(=O)N[C@@H](CC(C)C)C(=O)N[C@H](C(=O)N[C@@H](CCC(=O)O)C(=O)NCC(=O)NCC(=O)N1CCC[C@H]1C(=O)N[C@@H](CO)C(=O)N[C@@H](CO)C(=O)NCC(=O)N[C@@H](C)C(=O)N1CCC[C@H]1C(=O)N1CCC[C@H]1C(=O)N1CCC[C@H]1C(=O)N[C@@H](CO)C(N)=O)[C@@H](C)CC)[C@@H](C)CC)C(=O)O` [Example 421], in test [1] (setting [7]), the inhibition constant Ki stood at 0.0245 nM. For the same compound, the Emax on hGIPR (HEK293, cAMP, 37° C., 0.1% bovine casein and 1.0% human serum albumin, read-out: hGIPR Emax, % ± SEM) turned out to be 98%; on hGIPR (setting [8]), 100%; at hGLP-1R (HEK293, cAMP, 37° C., 0.1% bovine casein and 1.0% human serum albumin, read-out: hGLP-1R Emax, % ± SEM) it was 105%. The EC50 at hGIPR (setting [9]) was 0.00618 nM; on hGCGR (setting [10]) it was over 9950 nM; on hGCGR (setting [11]), over 9950 nM; on hGLP-1R (setting [12]) it was 0.057 nM.
